The values below come from US7915198B2, “Aqueous solution of non-colloidal silicic acid and boric acid” (Sabalo, N.V., priority 2002, dated 2011).

In data set [1] the test system is potato plants (strain Bintje). As for the experimental part:
(§1) Solutions of boric acid in water were prepared containing different concentrations of boric acid: 1%, 0.1%, 0.03%, 0.01%, 0.005%, 0.0003% and 0.0001% (W/V). Sodium silicate (10% Si) was diluted tenfold in water and further 1000 times diluted in the solutions or in water with pH 4.5 after dilution, resulting in a final silicon concentration of 0.0010 wt. % (or 10 μg/ml Si)
(§2) All solutions were filtered on a 0.1μ membrane filter. […] The solutions were used instantaneously. A potato garden was used to test the compounds against infection with Phytophthora infestan: 20 m^2 culture were used for testing and each m^2 contained 6 potato plants (strain Bintje) of two months old. Two times a week plant leaves were sprayed with the different solutions (about 10 liters/are). Four square meters were used as placebo.

The test system of the next data set is Phytophthora infestan. It counts as in vivo, potato plants (strain Bintje). As for the experimental part: as §1, §2

As to `OB(O)O` [boric acid], the “toxic reactions (necrotic effects on leaves such as black spots, holes)” value in data set [1] (1%, 0.1% and 0.03% boric acid, after 1 week treatment) was “toxic reactions”. For the same molecule, the “strength of plant leaves” value in data set [1] (From 0.003% boric acid on) is given as “plant leaves were stronger”. Moreover, the antifungal effect entry in the data set on Phytophthora infestan (1%, 0.1% and 0.03% boric acid) was “no antifungal effect”. Further, the fungal infection entry with Phytophthora infestan (From 0.003% boric acid on) is “fungal infection decreased”.
